This note sets out measurements from PubChem BioAssay (NCI).

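Interpolation was linear, between the two tested concentrations surrounding the appropriate level; five concentrations were tested over 48 hours in 96-well plates. TGI marks complete inhibition of growth.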

Test systems include HCT-15 colon; SK-MEL-2 melanoma; CCRF-CEM leukemia; UACC-62 melanoma; OVCAR-5 ovarian; NCI-H460 lung; MDA-N; HT29 colon; SNB-75 CNS; A498 renal; SK-OV-3 ovarian; KM12 colon; SN12C renal; TK-10 renal; CAKI-1 renal; PC-3 prostate; K-562 leukemia.
Holding throughout (assay): NCI-60 cell line screen, 48 h

Turning to `COc1ccc(NC(C)=O)c(C(=O)CCNC(C)=O)c1`, the TGI with HCT-15 colon, in the assay on SK-MEL-2 melanoma, with CCRF-CEM leukemia, with UACC-62 melanoma, in the assay on OVCAR-5 ovarian and in the assay with NCI-H460 lung was above 100 µM each time. Besides, the TGI with MDA-N, in the assay with HT29 colon, in the assay on SNB-75 CNS, in the assay on A498 renal, in the assay on SK-OV-3 ovarian and in the assay with KM12 colon was above 100 µM in each case. Also, the TGI in the assay on SN12C renal, with TK-10 renal, with CAKI-1 renal and with PC-3 prostate was above 100 µM in each case.
Consider `COc1ccc(/C=N/n2c(Cc3ccc(Cl)cc3)n[nH]c2=O)cc1`, for which the TGI in the assay on HCT-15 colon was above 100 µM; in the assay with K-562 leukemia, above 100 µM; in the assay on SK-MEL-2 melanoma, 61.5 µM; in the assay on CCRF-CEM leukemia, above 100 µM; in the assay on UACC-62 melanoma it was above 100 µM; in the assay with OVCAR-5 ovarian, above 100 µM. Moreover, the TGI in the assay with NCI-H460 lung is above 100 µM; in the assay with MDA-N, above 100 µM; with HT29 colon it was 28.2 µM; with SNB-75 CNS, 38.5 µM; with A498 renal, above 100 µM; with SK-OV-3 ovarian it was above 100 µM. For the same compound, the TGI in the assay with KM12 colon, in the assay on SN12C renal, in the assay with CAKI-1 renal and in the assay with PC-3 prostate was above 100 µM throughout.
Take `C/C(=N/NC(=S)N(Cc1ccccn1)Cc1ccccn1)c1cnccn1`: the TGI was 87.1 µM in the assay on HCT-15 colon; above 100 µM in the assay with K-562 leukemia; 26 µM with SK-MEL-2 melanoma; above 100 µM in the assay with CCRF-CEM leukemia; 32.6 µM in the assay with OVCAR-5 ovarian; above 33.1 µM in the assay on NCI-H460 lung. Moreover, the TGI in the assay with MDA-N is 31.2 µM; in the assay on HT29 colon, 10.3 µM; with SNB-75 CNS, 17.2 µM; with A498 renal, above 100 µM; in the assay with SK-OV-3 ovarian it was 4.27 µM; in the assay with KM12 colon, 19.7 µM. Further, the TGI in the assay on SN12C renal is 12.9 µM; in the assay on TK-10 renal it was 19.2 µM; in the assay on CAKI-1 renal, 8.08 µM; with PC-3 prostate, 26 µM.
Consider `Cc1ccc(-c2c(C#N)c(S)n(NS(=O)(=O)c3ccccc3)c(=O)c2C#N)cc1`, for which the TGI with HCT-15 colon was 50.5 µM; in the assay on K-562 leukemia it was above 100 µM; in the assay with SK-MEL-2 melanoma, above 100 µM; with CCRF-CEM leukemia, above 100 µM; in the assay on UACC-62 melanoma it was above 100 µM; in the assay on OVCAR-5 ovarian, above 100 µM. In addition, the TGI is 31.3 µM in the assay on NCI-H460 lung; above 100 µM in the assay with MDA-N; 97.2 µM with SNB-75 CNS; above 100 µM in the assay on A498 renal; above 100 µM in the assay on SK-OV-3 ovarian; 77.6 µM in the assay on KM12 colon. Also, the TGI is above 100 µM in the assay with SN12C renal, 65.7 µM in the assay with TK-10 renal, 92.9 µM in the assay on CAKI-1 renal and above 100 µM in the assay with PC-3 prostate.
With `O/N=C1\CC2(N3CCOCC3)CCC1(Cc1ccccc1)CC2`, the TGI in the assay with HCT-15 colon is above 100 µM; in the assay on K-562 leukemia it was above 100 µM; in the assay with SK-MEL-2 melanoma, 85 µM; with CCRF-CEM leukemia, above 100 µM; with OVCAR-5 ovarian it was above 100 µM; with NCI-H460 lung it was above 100 µM. Also, the TGI in the assay on MDA-N was above 100 µM; with HT29 colon it was above 100 µM; with SNB-75 CNS, 34.9 µM; in the assay on A498 renal, 88.9 µM; with SK-OV-3 ovarian, 83 µM; with KM12 colon it was above 100 µM. The TGI in the assay with SN12C renal, with CAKI-1 renal and in the assay on PC-3 prostate was above 100 µM throughout.
In the case of `CN(C)CCCNC(=O)CNC(=O)c1cc(NC(=O)c2cc(NC(=O)c3cc(NC(=O)CCNC(=O)c4cc(NC(=O)c5cc(NC(=O)c6nccn6C)cn5C)cn4C)cn3C)cn2C)cn1C`, the TGI with HCT-15 colon is above 100 µM; with K-562 leukemia, above 100 µM; in the assay with SK-MEL-2 melanoma it was above 100 µM; with CCRF-CEM leukemia, 49.2 µM; with OVCAR-5 ovarian, above 100 µM; with NCI-H460 lung, above 100 µM. The TGI in the assay with MDA-N, with HT29 colon, with SNB-75 CNS, in the assay with A498 renal, in the assay on SK-OV-3 ovarian and in the assay with KM12 colon was above 100 µM throughout. In addition, the TGI in the assay on SN12C renal, in the assay with TK-10 renal, in the assay on CAKI-1 renal and in the assay on PC-3 prostate was above 100 µM throughout.
For the compound `Cn1c2c(c3ccccc31)CC(=O)N1CCCCC1C21OCCO1` (centres undefined), the TGI in the assay on HCT-15 colon, with SK-MEL-2 melanoma, with CCRF-CEM leukemia, in the assay on UACC-62 melanoma, in the assay on OVCAR-5 ovarian and in the assay with NCI-H460 lung was above 100 µM throughout. Moreover, the TGI with MDA-N, with HT29 colon, in the assay on SNB-75 CNS, in the assay on A498 renal, in the assay with SK-OV-3 ovarian and in the assay on KM12 colon was above 100 µM in each case. Also, the TGI in the assay on SN12C renal, in the assay on TK-10 renal, with CAKI-1 renal and with PC-3 prostate was above 100 µM in each case.
Turning to `CSc1cc(Cl)c(C)cc1S(=O)(=O)NC(=O)NNc1ccccn1`, the TGI in the assay on HCT-15 colon, in the assay with K-562 leukemia, with SK-MEL-2 melanoma, in the assay on CCRF-CEM leukemia, in the assay with OVCAR-5 ovarian and in the assay on NCI-H460 lung was above 100 µM throughout. Moreover, the TGI in the assay with MDA-N, with HT29 colon, in the assay with SNB-75 CNS, in the assay with A498 renal, in the assay on SK-OV-3 ovarian and in the assay on KM12 colon was above 100 µM each time. Besides, the TGI with SN12C renal, in the assay on CAKI-1 renal and with PC-3 prostate was above 100 µM each time.
Take `C=CCOc1ccc(C2c3c([nH][nH]c3=O)CC(C)(O)C2C(=O)OC)cc1OC` (centres undefined): the TGI in the assay with HCT-15 colon, with SK-MEL-2 melanoma, with CCRF-CEM leukemia, with UACC-62 melanoma, with OVCAR-5 ovarian and in the assay with NCI-H460 lung was above 100 µM each time. For the same compound, the TGI with MDA-N, with HT29 colon, in the assay on SNB-75 CNS, with A498 renal, in the assay on KM12 colon and in the assay with SN12C renal was above 100 µM in each case. Also, the TGI in the assay with TK-10 renal, with CAKI-1 renal and in the assay with PC-3 prostate was above 100 µM each time.
Regarding `CC1(C)SC2C(NC(=O)Cc3ccccc3)C(=O)N2C1C(=O)O` (centres undefined), the TGI in the assay on HCT-15 colon, with K-562 leukemia, in the assay with SK-MEL-2 melanoma, in the assay on UACC-62 melanoma, in the assay on OVCAR-5 ovarian and in the assay on NCI-H460 lung was above 100 µM in each case. Also, the TGI with MDA-N, in the assay on HT29 colon, with SNB-75 CNS, in the assay with A498 renal, in the assay with SK-OV-3 ovarian and with KM12 colon was above 100 µM throughout. Moreover, the TGI in the assay on SN12C renal, in the assay on TK-10 renal, in the assay with CAKI-1 renal and in the assay on PC-3 prostate was above 100 µM each time.
`CC1(C)OC2CN(C(=O)OCc3ccccc3)C(CO)C2O1` (centres undefined): the TGI in the assay with HCT-15 colon, in the assay on K-562 leukemia, in the assay on SK-MEL-2 melanoma, with UACC-62 melanoma, in the assay on OVCAR-5 ovarian and in the assay with NCI-H460 lung was above 100 µM throughout. Also, the TGI in the assay on MDA-N, in the assay on HT29 colon, with SNB-75 CNS, with A498 renal, with SK-OV-3 ovarian and with KM12 colon was above 100 µM each time. The TGI in the assay with SN12C renal, in the assay with TK-10 renal, with CAKI-1 renal and with PC-3 prostate was above 100 µM each time.
Consider `CCOC(=O)NC(N(C)C(C(C)C)P(=O)(OCC)OCC)(C(F)(F)F)C(F)(F)F` (centres undefined), for which the TGI in the assay with HCT-15 colon, in the assay on K-562 leukemia, in the assay on SK-MEL-2 melanoma, in the assay with CCRF-CEM leukemia, in the assay with UACC-62 melanoma and in the assay with OVCAR-5 ovarian was above 100 µM each time. Besides, the TGI with NCI-H460 lung, in the assay on MDA-N, in the assay with HT29 colon, in the assay on SNB-75 CNS, in the assay with A498 renal and in the assay on KM12 colon was above 100 µM each time. For the same compound, the TGI in the assay with SN12C renal, in the assay with TK-10 renal, with CAKI-1 renal and in the assay with PC-3 prostate was above 100 µM each time.
On to `CCOC(=O)/C=C/[C@H](O[Si](c1ccccc1)(c1ccccc1)c1ccccc1)C(C)(C)C`, for which the TGI in the assay with HCT-15 colon, in the assay on K-562 leukemia, with SK-MEL-2 melanoma, in the assay on CCRF-CEM leukemia, in the assay on UACC-62 melanoma and in the assay with MDA-N was above 31.6 µM each time. Further, the TGI with HT29 colon, in the assay on SNB-75 CNS, in the assay with A498 renal, in the assay on SK-OV-3 ovarian, in the assay on KM12 colon and with SN12C renal was above 31.6 µM each time. The TGI in the assay with TK-10 renal, with CAKI-1 renal and with PC-3 prostate was above 31.6 µM throughout.
